Assays:
Type in all cases: in vivo
[1] = test system: common sunflower (HELAN, Helianthus annuus); test: Greenhouse postemergence trial, visual injury on common sunflower; details: Table 18
From the text: (§1) Greenhouse Trial Methodology—Evaluation of Postemergence Herbicidal Safening in Crops
(§2) Seeds of the desired test plant species were planted in a 90:10% v/v (volume/volume) mixture of PRO-MIX® BX (Premier Tech Horticulture, Quakertown, PA, USA) and PROFILE® GREENS GRADE™ (Profile Products LLC, Buffalo Grove, IL, USA) planting mixture, which typically has a pH of 5.2 to 6.2 and an organic matter content of at least 50 percent, in plastic pots with a surface area of 103.2 square centimeters (cm^2). When required to ensure good germination and healthy plants, a fungicide treatment and/or other chemical or physical treatment was applied. The plants were grown for 7-36 days (d) in a greenhouse with an approximate 14-hour (h) photoperiod which was maintained at about 23° C. during the day and 22° C. during the night. Nutrients and water were added on a regular basis and supplemental lighting was provided with overhead metal halide 1000-Watt lamps as necessary. The plants were employed for testing when they reached the second or third true leaf stage.
(§3) Emulsifiable concentrates of each of each pyridine carboxylate herbicide (Compound A or Compound B) were prepared at 100 grams acid equivalent per liter (g ae/L). An aliquot of each emulsifiable concentrate was placed in a 25 mL glass vial and diluted with an aqueous mixture of 1.25% (v/v) ACTIROB® B esterified rapeseed oil (Bayer Crop Science, Research Triangle Park, NC, USA) or MSO® Concentrate with LECI-TECH® methylated soybean oil (Loveland Products, Loveland, CO, USA) to obtain concentrated stock solutions at the highest application rate for each herbicide, based upon a 12 milliliter (mL) application volume at a rate of 187 liters per hectare (L/ha). The concentrated stock solutions were further diluted with an aqueous mixture of 1.25% v/v ACTIROB® B or MSO® Concentrate with LECI-TECH® to obtain stock solutions at reduced application rates for each herbicide. Spray solutions of the herbicide combinations (Compound A or Compound B plus safener) were prepared by adding weighed amounts or aliquots of the safener to the stock solutions of Compound A or Compound B to form 12-mL spray solutions in two-way combinations.
(§4) The spray solutions were applied to the plant material with an overhead Mandel track sprayer equipped with 8002E nozzles calibrated to deliver 187 L/ha over an application area of 0.503 square meters (m^2) at a spray height of 18 inches (43 centimeters (cm)) above the average plant canopy. Control plants were sprayed in the same manner with the solvent blank. All herbicide (component a) application rates are given as “g ae/ha” and all safener (component b) application rates are given as “g ai/ha.”
(§5) The treated plants and control plants were placed in a greenhouse as described above and watered by sub-irrigation to prevent wash-off of the test compounds. After 20-22 d, the condition of the test plants as compared with that of the control plants was determined visually and scored on a scale of 0 to 100 percent where 0 corresponds to no injury and 100 corresponds to complete kill.

[2] = test system: Hordeum vulgare (winter barley), HORVW; test: Greenhouse postemergence safening trial, visual injury on winter barley
Procedure: (§6) Greenhouse Trial Methodology-Evaluation of Postemergence Herbicidal […] in Crops […] When required to ensure good germination and healthy plants, a fungicide treatment and/or other chemical or physical treatment was applied. The plants were grown for 7-36 days (d) in a greenhouse with an approximate 14-hour (h) photoperiod which was maintained at about 23° C. during the day and 22° C. during the night. Nutrients and water were added on a regular basis and supplemental lighting was provided with overhead metal halide 1000-Watt lamps as necessary. The plants were employed for testing when they reached the second or third true leaf stage. Emulsifiable concentrates of each of each pyridine carboxylate herbicide (Compound A or Compound B) were prepared at 100 grams acid equivalent per liter (g ae/L). […] The concentrated stock solutions were further diluted with an aqueous mixture of 1.25% […] or MSO® Concentrate with LECI-TECH® to obtain stock solutions at reduced application rates for each herbicide. Spray solutions of the herbicide combinations (Compound A or Compound B plus safener) were prepared by adding weighed amounts or aliquots of the safener to the stock solutions of Compound A or Compound B to form 12-mL spray solutions in two-way combinations. […] Control plants were sprayed in the same manner with the solvent blank. All herbicide (component a) application rates are given as “g ae/ha” and all safener (component b) application rates are given as “g ai/ha.” The treated plants and control plants were placed in a greenhouse as described above and watered by sub-irrigation to prevent wash-off of the test compounds.

[3] = test system: Triticum aestivum (spring wheat), TRZAS; test: Greenhouse postemergence safening trial, visual injury on spring wheat
Procedure: as §6

[4] = test system: Triticum aestivum (durum wheat), TRZDU; test: Greenhouse postemergence safening trial, visual injury on durum wheat
Procedure: as §6

[5] = test system: Avena sativa (common oat), AVESA; test: Greenhouse postemergence safening trial, visual injury on common oat
Procedure: as §6

[6] = test system: Hordeum vulgare (spring barley), HORVS; test: Greenhouse postemergence safening trial, visual injury on spring barley
Procedure: as §6

[7] = test system: Triticum aestivum (winter wheat), TRZAW; test: Greenhouse postemergence safening trial, visual injury on winter wheat
Procedure: as §6

[8] = test system: Brassica napus (winter rape), BRSNW; test: Greenhouse postemergence trial, visual injury on winter rape
Procedure: as §6

[9] = test system: Matricaria inodora (false chamomile), MATIN; test: Greenhouse postemergence trial, visual injury on false chamomile
From the text: as §1, §2, §3, §4, §5

maize (ZEAMX) = test: Greenhouse postemergence safening trial, visual injury on maize; details: Table 18
From the text: as §1, §2, §3, §4, §5

[10] = test system: Sinapis arvensis (wild mustard), SINAR; test: Greenhouse postemergence trial, visual injury on wild mustard
From the text: as §1, §2, §3, §4, §5

[11] = test system: pigweed (AMARE, Amaranthus retroflexus); test: Greenhouse postemergence trial, visual injury on pigweed; details: Table 18
From the text: as §1, §2, §3, §4, §5

[12] = test system: nutsedge (CYPES, Cyperus esculentus); test: Greenhouse postemergence trial, visual injury on nutsedge; details: Table 18
From the text: as §1, §2, §3, §4, §5

[13] = test system: Anthemis arvensis (field chamomile), ANTAR; test: Greenhouse postemergence trial, visual injury on field chamomile
From the text: as §1, §2, §3, §4, §5

[14] = test system: Salsola kali (Russian thistle), SASKR; test: Greenhouse postemergence trial, visual injury on Russian thistle
Procedure: as §6

[15] = test system: Matricaria chamomilla (wild chamomile), MATCH; test: Greenhouse postemergence trial, visual injury on wild chamomile
Procedure: as §6

[16] = test system: Fagopyrum esculentum (common buckwheat), FAGES; test: Greenhouse postemergence trial, visual injury on common buckwheat; details: herbicide alone 20 g/ha
From the text: as §1, §2, §3, §4, §5

[17] = test system: Polygonum convulvus (wild buckwheat), POLCO; test: Greenhouse postemergence trial, visual injury on wild buckwheat; details: herbicide alone 20 g/ha
From the text: as §1, §2, §3, §4, §5

## O=C(O)COc1ccc(Cl)c2cccnc12 [CQC-a, cloquintocet-acid]
[1]; CQC-a 20 g/ha alone
  % visual injury, Ob: 0%
[1]; CQC-a 40 g/ha alone
  % visual injury, Ob: 0%
[1]; CQC-a 80 g/ha alone
  % visual injury, Ob: 0%
[1]; CQC-a 120 g/ha alone
  % visual injury, Ob: 0%
[2]; safener alone 5 g/ha
  % visual injury, Ob: 0%
[2]; safener alone 10 g/ha
  % visual injury, Ob: 0%
[2]; safener alone 20 g/ha
  % visual injury, Ob: 0%
[2]; safener alone 40 g/ha
  % visual injury, Ob: 0%
[2]; safener alone 80 g/ha
  % visual injury, Ob: 0%
[3]; safener alone 5 g/ha
  % visual injury, Ob: 0%
[3]; safener alone 10 g/ha
  % visual injury, Ob: 0%
[3]; safener alone 20 g/ha
  % visual injury, Ob: 0%
[3]; safener alone 40 g/ha
  % visual injury, Ob: 0%
[3]; safener alone 80 g/ha
  % visual injury, Ob: 0%
[3]; safener alone 120 g/ha
  % visual injury, Ob: 0%
[4]; safener alone 40 g/ha
  % visual injury, Ob: 0%
[5]; safener alone 40 g/ha
  % visual injury, Ob: 0%
[6]; safener alone 5 g/ha
  % visual injury, Ob: 0%
[6]; safener alone 10 g/ha
  % visual injury, Ob: 0%
[6]; safener alone 20 g/ha
  % visual injury, Ob: 0%
[6]; safener alone 40 g/ha
  % visual injury, Ob: 0%
[6]; safener alone 80 g/ha
  % visual injury, Ob: 0%
[6]; safener alone 120 g/ha
  % visual injury, Ob: 0%
[7]; safener alone 5 g/ha
  % visual injury, Ob: 0%
[7]; safener alone 10 g/ha
  % visual injury, Ob: 0%
[7]; safener alone 20 g/ha
  % visual injury, Ob: 0%
[7]; safener alone 40 g/ha
  % visual injury Δ: 0%
  % visual injury, Ob: 0%
[7]; safener alone 80 g/ha
  % visual injury, Ob: 0%
[7]; safener alone 120 g/ha
  % visual injury, Ob: 0%
[8]; safener alone 5 g/ha
  % visual injury, Ob: 0%
[8]; safener alone 10 g/ha
  % visual injury, Ob: 0%
[8]; safener alone 20 g/ha
  % visual injury, Ob: 0%
[8]; safener alone 40 g/ha
  % visual injury, Ob: 0%
[9]; safener alone 10 g/ha
  % visual injury, Ob: 0%
[9]; safener alone 20 g/ha
  % visual injury, Ob: 0%
[9]; safener alone 40 g/ha
  % visual injury, Ob: 0%
[9]; safener alone 80 g/ha
  % visual injury, Ob: 0%
Maize (ZEAMX); CQC-a 20 g/ha alone
  % visual injury, Ob: 0%
Maize (ZEAMX); CQC-a 40 g/ha alone
  % visual injury, Ob: 0%
Maize (ZEAMX); CQC-a 80 g/ha alone
  % visual injury, Ob: 0%
Maize (ZEAMX); CQC-a 120 g/ha alone
  % visual injury, Ob: 0%
[10]; safener alone 10 g/ha
  % visual injury, Ob: 0%
[10]; safener alone 20 g/ha
  % visual injury, Ob: 0%
[10]; safener alone 40 g/ha
  % visual injury, Ob: 0%
[10]; safener alone 80 g/ha
  % visual injury, Ob: 0%
[11]; CQC-a 20 g/ha alone
  % visual injury, Ob: 0%
[11]; CQC-a 40 g/ha alone
  % visual injury, Ob: 0%
[11]; CQC-a 80 g/ha alone
  % visual injury, Ob: 0%
[11]; CQC-a 120 g/ha alone
  % visual injury, Ob: 0%
[12]; CQC-a 20 g/ha alone
  % visual injury, Ob: 0%
[12]; CQC-a 40 g/ha alone
  % visual injury, Ob: 0%
[12]; CQC-a 80 g/ha alone
  % visual injury, Ob: 0%
[12]; CQC-a 120 g/ha alone
  % visual injury, Ob: 0%
[13]; safener alone 5 g/ha
  % visual injury, Ob: 0%
[13]; safener alone 10 g/ha
  % visual injury, Ob: 0%
[13]; safener alone 20 g/ha
  % visual injury, Ob: 0%
[13]; safener alone 40 g/ha
  % visual injury, Ob: 0%

## COC(=O)COc1ccc(Cl)c2cccnc12 [CQC-methyl, cloquintocet-methyl]
[14]; safener alone 10 g/ha
  % visual injury, Ob: 0%
[14]; safener alone 20 g/ha
  % visual injury, Ob: 0%
[14]; safener alone 40 g/ha
  % visual injury, Ob: 0%
[3]; safener alone 10 g/ha
  % visual injury, Ob: 0%
[3]; safener alone 20 g/ha
  % visual injury, Ob: 0%
[3]; safener alone 40 g/ha
  % visual injury, Ob: 0%
[15]; safener alone 10 g/ha
  % visual injury, Ob: 0%
[15]; safener alone 20 g/ha
  % visual injury, Ob: 0%
[15]; safener alone 40 g/ha
  % visual injury, Ob: 0%
[6]; safener alone 10 g/ha
  % visual injury, Ob: 0%
[6]; safener alone 20 g/ha
  % visual injury, Ob: 0%
[6]; safener alone 40 g/ha
  % visual injury, Ob: 0%
[8]; safener alone 10 g/ha
  % visual injury, Ob: 0%
[8]; safener alone 20 g/ha
  % visual injury, Ob: 0%
[8]; safener alone 40 g/ha
  % visual injury, Ob: 0%

## C#CCOC(=O)c1nc(-c2ccc3cc[nH]c3c2F)c(F)c(N)c1Cl [Compound B, propargyl 4-amino-3-chloro-5-fluoro-6-(7-fluoro-1H-indol-6-yl)pyridine-2-carboxylate]
[2]; herbicide alone 40 g/ha
  % visual injury Δ: 0%
  % visual injury, Ob: 38%
[14]; herbicide alone 20 g/ha
  % visual injury, Ob: 70%
[3]; herbicide alone 20 g/ha
  % visual injury, Ob: 28%
[3]; herbicide alone 40 g/ha
  % visual injury, Ob: 48%
[4]; herbicide alone 40 g/ha
  % visual injury, Ob: 40%
[16]
  % visual injury, Ob: 78%
[5]; herbicide alone 40 g/ha
  % visual injury, Ob: 0%
[6]; herbicide alone 20 g/ha
  % visual injury, Ob: 30%
[6]; herbicide alone 40 g/ha
  % visual injury, Ob: 25%
[7]; herbicide alone 40 g/ha
  % visual injury, Ob: 50%
[8]; herbicide alone 20 g/ha
  % visual injury, Ob: 100%
[17]
  % visual injury, Ob: 100%
[10]; herbicide alone 20 g/ha
  % visual injury, Ob: 80%

Reference: patent US12310364B2, “Safened compositions comprising pyridine carboxylate herbicides and cloquintocet” (Corteva Agriscience LLC, priority 2018, dated 2025)
